Laboratory results from PMC8351955, “Targeting Mycobacterium tuberculosis response to environmental cues for the development of effective antitubercular drugs” (PLoS Biology, 2021).
Like-named read-outs stand apart in the source and are kept apart here.

How the values were obtained:
[1] = system: CDC1551(rv2390c′::GFP) reporter Mtb strain, response to high [Cl−]; assay: microbe, parasite or virus in culture; assay type: cell-based, Mycobacterium tuberculosis; details: Mycobacterium tuberculosis, 144 h; for activity at 20 µM: read-out: rv2390c'::GFP validation assay NPA% at 20 µM compound
[2] = system: CDC1551(rv1405c′::GFP) reporter Mtb strain; assay: microbe, parasite or virus in culture; assay type: cell-based, Mycobacterium tuberculosis; details: Mycobacterium tuberculosis; for activity at 10 µM: read-out: rv1405c'::GFP secondary assay NPA% at 10 µM compound; for activity at 20 µM: read-out: rv1405c'::GFP secondary assay NPA% at 20 µM compound
[3] = pH 6.4, […], DMSO positive control = 100%, read-out: Primary screen rv2390c'::GFP NPA%
[4] = 10 µM, pH 6.4, 250 mM NaCl, 6 days, read-out: rv2390c'::GFP validation assay NPA% at 10 µM compound

SMILES	activity at 10 µM [1, 3] [%]	activity at 10 µM [1, 4] [%]	activity at 20 µM ([1]; pH 6.4, 250 mM NaCl, 6 days) [%]	activity at 10 µM [2] [%]	activity at 20 µM [2] [%]
Cc1ccc(C(C)NC(=O)Nc2ccc(C#N)c(Cl)c2)o1 (stereo not drawn) [RU-0272807, CC(NC(=O)NC1=CC(Cl)=C(C=C1)C#N)C1=CC=C(C)O1]	160	113 ± 12.8	133 ± 5.6	90.5 ± 6.1	128 ± 12
Cc1ccccc1OCC(=O)NCc1ccc(C)n1C [RU-0272839, CN1C(C)=CC=C1CNC(=O)COC1=C(C)C=CC=C1]	215	161 ± 13.6	204 ± 5.5	93 ± 7.6	104 ± 5.9
COc1ccc(OC)c(C2CCCN2C(=O)NCc2cccs2)c1 (stereo not drawn) [RU-0273525, COC1=CC(C2CCCN2C(=O)NCC2=CC=CS2)=C(OC)C=C1]	150	158 ± 14.1	232 ± 6.9	119 ± 11.1	184 ± 6.5
CCOc1cc(F)ccc1NC(=O)Nc1cccc(C#N)c1 [RU-0273629, CCOC1=C(NC(=O)NC2=CC(=CC=C2)C#N)C=CC(F)=C1]	170	203 ± 16.4	318 ± 21.4	188 ± 18	540 ± 65.6
Cc1cc(NS(=O)(=O)Cc2cccc(C(F)(F)F)c2)n(C)n1 [RU-0274447, CN1N=C(C)C=C1NS(=O)(=O)CC1=CC(=CC=C1)C(F)(F)F]	186	171 ± 11.2	252 ± 10.1	303 ± 7.6	619 ± 9.2
CCc1nnc(NC(=O)c2sc(CC(C)C)nc2C)s1 [RU-0274734, CCC1=NN=C(NC(=O)C2=C(C)N=C(CC(C)C)S2)S1]	170	150.7 ± 1.2	178 ± 7.2	97.2 ± 4.2	102 ± 3.9
Cc1ccc(NC(=O)c2cc(C)n(C3CC3)c2C)c(C)c1 [RU-0276186, CC1=CC(C(=O)NC2=C(C)C=C(C)C=C2)=C(C)N1C1CC1]	159	105 ± 5.3	157 ± 13.8	95.4 ± 4.5	123 ± 13.3
CCc1ccc(NC(=O)C2(N(C)C)Cc3ccccc3C2)cc1 [RU-0276433, CCC1=CC=C(NC(=O)C2(CC3=C(C2)C=CC=C3)N(C)C)C=C1]	157	124 ± 10.1	186 ± 4.9	171 ± 9.3	312 ± 25.3
CC(C)(C)n1cc(C#N)c(NS(=O)(=O)c2cccc(F)c2)n1 [RU-0277089, CC(C)(C)N1C=C(C#N)C(NS(=O)(=O)C2=CC(F)=CC=C2)=N1]	45.4	51.2 ± 5.5	28.2 ± 0.7	43.2 ± 4.1	17.4 ± 5.4
COc1ccc(COc2ccccc2NC(C)=O)cc1Br [RU-0277875, COC1=C(Br)C=C(COC2=C(NC(C)=O)C=CC=C2)C=C1]	175	138 ± 7.5	229 ± 11.9	139 ± 5.6	199 ± 12.2
CC(C)c1cc(C(=O)NC2CCN(c3cccc(F)c3)CC2)n[nH]1 [RU-0278450, CC(C)C1=CC(=NN1)C(=O)NC1CCN(CC1)C1=CC(F)=CC=C1]	175	118 ± 5.7	231 ± 1	92.3 ± 5.3	146 ± 5.1
Cn1cc(CCC(=O)Nc2ccc3c(c2)S(=O)(=O)C=C3)cn1 [RU-0278569, CN1C=C(CCC(=O)NC2=CC3=C(C=CS3(=O)=O)C=C2)C=N1]	47.1	80.9 ± 7.4	63.4 ± 5.6	74.5 ± 5.4	76.5 ± 4.9
